This note sets out measurements from PubChem BioAssay AID296 (DTP/NCI, 2004).

Inconclusive results are not listed.

The experiment deals with MX-1 breast xenograft, nude mice, tumor weight T/C. In words: NCI In Vivo Anticancer Drug Screen. Data for tumor model Human Mammary Carcinoma MX-1 Xenograft (intrarenal inoculation) in NU/NU Swiss (nude) mice. The settings on record: endpoint: mean tumor weight change, higher = larger tumour. In short, it runs like this: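 Activity is given as a ratio, with each measurement in the compound-treated arm divided by the matching measurement in vehicle-dosed controls. Tumour size or survival serves as the measured parameter.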
For orientation: Xenograft models place foreign cells or tissue in a host animal.

Where [1] appears, read: dose: 12.5 mg/kg/injection, schedule: Q04DX003 (ip), vehicle: saline with Tween-80.
The mark [2] stands for this setting: dose: 25.0 mg/kg/injection, schedule: Q04DX003 (ip), vehicle: saline with Tween-80.

With `Cc1cc(Br)c2nsnc2c1[N+](=O)[O-]`, the T/C by setting is: (dose: 150.0 mg/kg/injection, schedule: Q04DX003 (ip), vehicle: saline with Tween-80) 104 % of control; (dose: 300.0 mg/kg/injection, schedule: Q04DX003 (ip), vehicle: saline with Tween-80) 74 % of control; (dose: 600.0 mg/kg/injection, schedule: Q04DX003 (ip), vehicle: saline with Tween-80) 97 % of control; (dose: 1200.0 mg/kg/injection, schedule: Q04DX003 (ip), vehicle: saline with Tween-80) 159 % of control.
For `CC[C@@]1(O)C(=O)OCc2c1cc1n(c2=O)Cc2cc3cc(O)ccc3nc2-1`, the T/C runs as follows: (dose: 8.0 mg/kg/injection, schedule: Q04DX003 (sc), vehicle: saline) -98 % of control; (dose: 16.0 mg/kg/injection, schedule: Q04DX003 (sc), vehicle: saline) -100 % of control; (dose: 32.0 mg/kg/injection, schedule: Q04DX003 (sc), vehicle: saline) -100 % of control; (dose: 32.0 mg/kg/injection, schedule: Q04DX003 (sc), vehicle: suspension in saline) -100 % of control; (dose: 64.0 mg/kg/injection, schedule: Q04DX003 (sc), vehicle: saline) -100 % of control; (dose: 64.0 mg/kg/injection, schedule: Q04DX003 (sc), vehicle: suspension in saline) -100 % of control. Where the note is “dose: 128.0 mg/kg/injection, schedule: Q04DX003 (sc), vehicle: suspension in saline”, the T/C was -100 % of control.
As to `OCCCN1CCCCC1CO` (stereo unspecified), the T/C by setting is: (dose: 300.0 mg/kg/injection, schedule: Q04DX003 (sc), vehicle: saline) 85 % of control; (dose: 600.0 mg/kg/injection, schedule: Q04DX003 (sc), vehicle: saline) 84 % of control; (dose: 1200.0 mg/kg/injection, schedule: Q04DX003 (sc), vehicle: saline) 98 % of control.
For the compound `O=S(=O)(c1ccccc1)N1CN2CCN(C2)C1`, the T/C is, setting by setting: (dose: 200.0 mg/kg/injection, schedule: Q04DX003 (sc), vehicle: saline with Tween-80) 58 % of control; (dose: 400.0 mg/kg/injection, schedule: Q04DX003 (sc), vehicle: saline with Tween-80) 81 % of control; (dose: 800.0 mg/kg/injection, schedule: Q04DX003 (sc), vehicle: saline with Tween-80) 65 % of control; (dose: 1600.0 mg/kg/injection, schedule: Q04DX003 (sc), vehicle: saline with Tween-80) 48 % of control.
Consider `CC(C)=CCNc1ncnc2c1ncn2C1OC(CO)C(O)C1O` (stereo unspecified), for which the T/C (dose: 100.0 mg/kg/injection, schedule: Q04DX003 (sc), vehicle: suspension in saline) is 122 % of control.
`N#C[C@H](OC1OC(COC2OC(CO)C(O)C(O)C2O)C(O)C(O)C1O)c1ccccc1` (stereo partly specified): the T/C is 63 % of control (dose: 450.0 mg/kg/injection, schedule: Q04DX003 (sc), vehicle: saline); 69 % of control (dose: 900.0 mg/kg/injection, schedule: Q04DX003 (sc), vehicle: saline); 70 % of control (dose: 1800.0 mg/kg/injection, schedule: Q04DX003 (sc), vehicle: saline); 67 % of control (dose: 3600.0 mg/kg/injection, schedule: Q04DX003 (sc), vehicle: saline).
In the case of `O=S1(=O)CS(=O)(=O)OCCO1`, the T/C reads like this: (dose: 37.5 mg/kg/injection, schedule: Q04DX003 (sc), vehicle: Klucel (hydroxypropylcellulose) (HPC)) 25 % of control; (dose: 75.0 mg/kg/injection, schedule: Q04DX003 (sc), vehicle: Klucel (hydroxypropylcellulose) (HPC)) 42 % of control; (dose: 150.0 mg/kg/injection, schedule: Q04DX003 (sc), vehicle: Klucel (hydroxypropylcellulose) (HPC)) 7 % of control.
On to `Ic1ncnc2c1ncn2C1CCCO1` (stereo unspecified), for which the T/C is 84 % of control (dose: 50.0 mg/kg/injection, schedule: Q04DX003 (sc), vehicle: Klucel (hydroxypropylcellulose) (HPC)); 97 % of control (dose: 200.0 mg/kg/injection, schedule: Q04DX003 (sc), vehicle: Klucel (hydroxypropylcellulose) (HPC)); 123 % of control (dose: 400.0 mg/kg/injection, schedule: Q04DX003 (sc), vehicle: Klucel (hydroxypropylcellulose) (HPC)).
Take `CCC1(O)CC2CN(CCc3c([nH]c4ccccc34)C(C(=O)OC)(c3cc4c(cc3OC)N(C)C3C(O)(C(=O)NCCSSCCNC(=O)C5(O)C(O)C6(CC)C=CCN7CCC8(c9cc(C%10(C(=O)OC)CC%11CN(CCc%12c%10[nH]c%10ccccc%12%10)CC(O)(CC)C%11)c(OC)cc9N(C)C58)C76)C(O)C5(CC)C=CCN6CCC43C65)C2)C1` (stereo unspecified): the T/C was 101 % of control (dose: 1.5 mg/kg/injection, schedule: Q04DX003 (sc), vehicle: suspension in saline); 102 % of control (dose: 3.0 mg/kg/injection, schedule: Q04DX003 (sc), vehicle: suspension in saline); 70 % of control (dose: 6.0 mg/kg/injection, schedule: Q04DX003 (sc), vehicle: suspension in saline); 1 % of control (dose: 12.0 mg/kg/injection, schedule: Q04DX003 (sc), vehicle: saline); 73 % of control (dose: 12.0 mg/kg/injection, schedule: Q04DX003 (sc), vehicle: suspension in saline).
As to `COc1cccc2c1C(=O)c1c(O)c3c(c(O)c1C2=O)C[C@@](O)(C(=O)CO)C[C@@H]3OC1CC(OC(C)=O)C(OC(C)=O)C(C)O1` (stereo partly specified), the T/C is 82 % of control (dose: 6.25 mg/kg/injection, schedule: Q01DX010 (sc), vehicle: distilled water + Tween-80) and 96 % of control (dose: 12.5 mg/kg/injection, schedule: Q01DX010 (sc), vehicle: distilled water + Tween-80).
`O=[N+]([O-])c1ccc(N(CCO)CCO)c2c1no[n+]2[O-]`: the T/C is 101 % of control under setting [1]; 108 % of control under setting [2]; 75 % of control (dose: 50.0 mg/kg/injection, schedule: Q04DX003 (ip), vehicle: saline with Tween-80).
Take `CO[C@@]12[C@@H]3N[C@@H]3CN1C1=C(C(=O)C(NCCc3ccccn3)=C(C)C1=O)[C@@H]2COC(N)=O`: the T/C by setting is: (dose: 6.25 mg/kg/injection, schedule: Q04DX003 (ip), vehicle: saline with Tween-80) -84 % of control; under setting [1], -21 % of control; under setting [2], -95 % of control.
`CCCC(=O)O`: the T/C (dose: 100.0 mg/kg/injection, schedule: Q01DX010 (sc), vehicle: saline) is 104 % of control.
`Clc1cc(Cl)c(C[N+]23CN4CN(CN(C4)C2)C3)cc1Cl`: the T/C runs as follows: (dose: 37.5 mg/kg/injection, schedule: Q04DX003 (sc), vehicle: saline with Tween-80) 106 % of control; (dose: 75.0 mg/kg/injection, schedule: Q04DX003 (sc), vehicle: saline with Tween-80) 120 % of control; (dose: 150.0 mg/kg/injection, schedule: Q04DX003 (sc), vehicle: saline with Tween-80) 110 % of control; (dose: 300.0 mg/kg/injection, schedule: Q04DX003 (sc), vehicle: saline with Tween-80) 169 % of control.
As to `COc1cc(NS(C)(=O)=O)ccc1Nc1c2ccccc2nc2ccccc12`, the T/C is, setting by setting: (dose: 0.75 mg/kg/injection, schedule: Q01DX010 (sc), vehicle: lactic acid) 124 % of control; (dose: 3.75 mg/kg/injection, schedule: Q01DX010 (sc), vehicle: clinical formulation) 54 % of control.
With `CO[C@H](C(=O)[C@@H](O)[C@@H](C)O)[C@@H]1Cc2cc3cc(OC4CC(OC5CC(O)C(O)C(C)O5)C(O)C(C)O4)c(C)c(O)c3c(O)c2C(=O)[C@H]1OC1CC(OC2CC(OC3CC(C)(O)C(O)C(C)O3)C(O)C(C)O2)C(O)C(C)O1` (stereo partly specified), the T/C by setting is: (dose: 0.25 mg/kg/injection, schedule: Q01DX010 (sc), vehicle: saline) 86 % of control; (dose: 0.25 mg/kg/injection, schedule: Q04DX003 (sc), vehicle: saline) 105 % of control; (dose: 0.5 mg/kg/injection, schedule: Q04DX003 (sc), vehicle: saline) 72 % of control; (dose: 0.75 mg/kg/injection, schedule: Q04DX003 (sc), vehicle: saline) 66 % of control; (dose: 1.0 mg/kg/injection, schedule: Q04DX003 (sc), vehicle: saline) 42 % of control; (dose: 1.5 mg/kg/injection, schedule: Q04DX003 (sc), vehicle: saline) 26 % of control. Moreover, the T/C was -98 % of control (dose: 2.0 mg/kg/injection, schedule: Q01DX010 (sc), vehicle: saline) and -34 % of control (dose: 2.0 mg/kg/injection, schedule: Q04DX003 (sc), vehicle: saline).
With `COc1ccc2c(ccc3oc([N+](=O)[O-])cc32)c1`, the T/C is 99 % of control (dose: 300.0 mg/kg/injection, schedule: Q04DX003 (sc), vehicle: Klucel (hydroxypropylcellulose) (HPC)); 72 % of control (dose: 600.0 mg/kg/injection, schedule: Q04DX003 (sc), vehicle: Klucel (hydroxypropylcellulose) (HPC)); 71 % of control (dose: 1200.0 mg/kg/injection, schedule: Q04DX003 (sc), vehicle: Klucel (hydroxypropylcellulose) (HPC)); 36 % of control (dose: 2400.0 mg/kg/injection, schedule: Q04DX003 (sc), vehicle: Klucel (hydroxypropylcellulose) (HPC)).
